Reference: ChEMBL document CHEMBL3860051, “Phosphorothioate analogs of P1,P3-di(nucleosid-5'-yl) triphosphates: Synthesis, assignment of the absolute configuration at P-atoms and P-stereodependent recognition by Fhit hydrolase” (Bioorg Med Chem, 2016)

Experiments:
[1] = Retention time of compound by RP-HPLC analysis; format: physicochemical
[2] = Stability of the compound assessed as snake venom phosphodiesterase-mediated initial rate of hydrolysis per microgram of protein at 50 uM by RP-HPLC analysis; format: ADME; details: serpentes
[3] = system: snake venom phosphodiesterase; assay: Stability of compound assessed as snake venom phosphodiesterase-mediated compound hydrolysis at 50 uM by RP-HPLC analysis; format: ADME; details: serpentes, read-out: Drug degradation
[4] = Drug level treated with (S,S)-P1,P3-di(adenosin-5'-yl)P1,P3- bis-thio-triphosphate assessed as snake venom phosphodiesterase-mediated compound formation at 50 uM after 2 hrs by RP-HPLC analysis; format: ADME; details: serpentes
[5] = Drug level treated with (R,S)-P1,P3-di(adenosin-5'-yl)P1,P3- bis-thio-triphosphate assessed as snake venom phosphodiesterase-mediated compound formation at 50 uM after 30 mins by RP-HPLC analysis; format: ADME; details: serpentes, 0.5 h
[6] = target: T1, Bis(5'-adenosyl)-triphosphatase (Homo sapiens, UniProt P49789); assay: Stability of the compound assessed as human Fhit expressed in Escherichia coli BL21-mediated compound hydrolysis rate per microgram protein at 50 uM after 5 to 120 mins by RP-HPLC analysis; format: ADME
T1 sequence (P49789 whole entry): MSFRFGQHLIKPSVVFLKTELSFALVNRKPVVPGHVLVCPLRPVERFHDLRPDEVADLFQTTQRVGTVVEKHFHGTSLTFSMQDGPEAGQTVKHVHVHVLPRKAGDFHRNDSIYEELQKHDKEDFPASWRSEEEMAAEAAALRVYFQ

[7] = system: snake venom phosphodiesterase; assay: Stability of the compound assessed as snake venom phosphodiesterase-mediated compound hydrolysis at 50 uM after 1 hr by RP-HPLC analysis; format: ADME; details: serpentes, read-out: Drug degradation
[8] = Stability of the compound assessed as snake venom phosphodiesterase-mediated initial rate of hydrolysis per microgram of protein at 50 uM after 1 hr by RP-HPLC analysis; format: ADME; details: serpentes
[9] = system: snake venom phosphodiesterase; assay: Stability of the compound assessed as snake venom phosphodiesterase-mediated compound hydrolysis at 50 uM after 2 hrs by RP-HPLC analysis; format: ADME; details: serpentes, read-out: Drug degradation
[10] = Stability of the compound assessed as snake venom phosphodiesterase-mediated initial rate of hydrolysis per microgram of protein at 50 uM after 2 hrs by RP-HPLC analysis; format: ADME; details: serpentes
[11] = target: T1, Bis(5'-adenosyl)-triphosphatase; assay: Stability of compound assessed as human Fhit expressed in Escherichia coli BL21-mediated compound initial rate of hydrolysis per microgram of protein at 50 to 200 uM after 5 to 120 mins by RP-HPLC analysis; format: ADME
[12] = system: snake venom phosphodiesterase; assay: Stability of the compound assessed as snake venom phosphodiesterase-mediated compound hydrolysis at 200 uM after 1 hr by RP-HPLC analysis; format: ADME; details: serpentes, read-out: Drug degradation
[13] = Stability of the compound assessed as snake venom phosphodiesterase-mediated initial rate of hydrolysis per microgram of protein at 200 uM after 1 hr by RP-HPLC analysis; format: ADME; details: serpentes
[14] = (§1) Stability of the compound assessed as snake venom phosphodiesterase-mediated compound hydrolysis at 50 uM after 15 mins by RP-HPLC analysis; format: ADME; details: serpentes, 0.25 h, 50 µM
[15] = Stability of the compound assessed as snake venom phosphodiesterase-mediated initial rate of hydrolysis per microgram of protein at 50 uM after 15 mins by RP-HPLC analysis; format: ADME; details: serpentes, 0.25 h
[16] = Drug level treated with (R,R)-P1,P3-di(adenosin-5'-yl)P1,P3-bis-thio-triphosphate assessed as snake venom phosphodiesterase-mediated compound formation at 50 uM after 10 mins by RP-HPLC analysis; format: ADME; details: serpentes
[17] = system: snake venom phosphodiesterase; assay: as §1; format: ADME; details: serpentes, snake venom phosphodiesterase; read-out: Drug degradation
[18] = system: snake venom phosphodiesterase; assay: Stability of the compound assessed as snake venom phosphodiesterase-mediated compound hydrolysis at 50 uM after 30 mins by RP-HPLC analysis; format: ADME; details: serpentes, read-out: Drug degradation
[19] = Stability of the compound assessed as snake venom phosphodiesterase-mediated initial rate of hydrolysis per microgram of protein at 50 uM after 30 mins by RP-HPLC analysis; format: ADME; details: serpentes, 0.5 h
[20] = Drug level treated with 1-O-[(guanosin-5'-yl)thiophosphyl]-2-S-[(guanosin-5'-yl)dithiophosphyl]-ethane assessed as snake venom phosphodiesterase-mediated compound formation at 50 uM after 15 mins by RP-HPLC analysis; format: ADME; details: serpentes, 0.25 h
[21] = system: snake venom phosphodiesterase; assay: Stability of the compound assessed as snake venom phosphodiesterase-mediated compound hydrolysis at 50 uM after 10 mins by RP-HPLC analysis; format: ADME; details: serpentes, read-out: Drug degradation
[22] = Stability of the compound assessed as snake venom phosphodiesterase-mediated initial rate of hydrolysis per microgram of protein at 50 uM after 10 mins by RP-HPLC analysis; format: ADME; details: serpentes

## Nc1nc2c(ncn2[C@@H]2O[C@H](CO[P@](=O)(S)OP(=O)(O)O)[C@@H](O)[C@H]2O)c(=O)[nH]1
[1]
  Retention_time: 14.9 min

## Nc1ncnc2c1ncn2[C@@H]1O[C@H](COP(O)(O)=S)[C@@H](O)[C@H]1O
[1]
  Retention_time: 13.8 min

## Nc1ncnc2c1ncn2[C@@H]1O[C@H](CO[P@](=O)(S)OP(=O)(O)O)[C@@H](O)[C@H]1O
[2]
  Drug degradation: 1.1 ×10⁻³ nmol/min
[3]
  metabolised at 50 µM: 10%
[4]
  Drug metabolism: Metabolite_Detected
[5]
  Drug metabolism: Metabolite_Detected
[1]
  Retention_time: 16.8 min

## Nc1nc2c(ncn2[C@@H]2O[C@H](COP(=O)(S)OP(=O)(O)OP(=O)(S)OC[C@H]3O[C@@H](n4cnc5c(=O)[nH]c(N)nc54)[C@H](O)[C@@H]3O)[C@@H](O)[C@H]2O)c(=O)[nH]1 (mixture of isomers)
[6]
  Drug degradation: 5.9 pmol/min
[7]
  metabolised at 1 h, 50 µM: 50%
[8]
  Drug degradation: 0.0275 nmol/min

## Nc1ncnc2c1ncn2[C@@H]1O[C@H](CO[P@](=O)(S)OP(=O)(O)O[P@@](=O)(S)OC[C@H]2O[C@@H](n3cnc4c(N)ncnc43)[C@H](O)[C@@H]2O)[C@@H](O)[C@H]1O
[6]
  Drug degradation: 5.7 pmol/min
[9]
  metabolised at 2 h, 50 µM: 52%
[10]
  Drug degradation: 0.0012 nmol/min

## NC(=O)c1ncn([C@@H]2O[C@H](COP(=O)(O)S)[C@@H](O)[C@H]2O)n1 (some centres undefined)
[1]
  Retention_time: 10.6 min

## Nc1nc2c(ncn2[C@@H]2O[C@H](CO[P@@](=O)(S)OP(=O)(O)O[P@](=O)(S)OC[C@H]3O[C@@H](n4cnc5c(=O)[nH]c(N)nc54)[C@H](O)[C@@H]3O)[C@@H](O)[C@H]2O)c(=O)[nH]1
[6]
  Drug degradation: 0.7 pmol/min
[7]
  metabolised at 1 h, 50 µM: 95%
[8]
  Drug degradation: 0.1212 nmol/min

## NC(=O)c1ncn([C@@H]2O[C@H](CO[P@](=O)(S)OP(=O)(O)O[P@](=O)(S)OC[C@H]3O[C@@H](n4cnc(C(N)=O)n4)[C@H](O)[C@@H]3O)[C@@H](O)[C@H]2O)n1
[11]
  Stability: Stable
[12]
  metabolised at 1 h, 200 µM: 41%
[13]
  Drug degradation: 0.0253 nmol/min

## Nc1nc2c(ncn2[C@@H]2O[C@H](COP(=O)(S)OCCSP(=O)(S)OC[C@H]3O[C@@H](n4cnc5c(=O)[nH]c(N)nc54)[C@H](O)[C@@H]3O)[C@@H](O)[C@H]2O)c(=O)[nH]1 (stereo in doubt; 9B)
[6]
  Drug degradation: 2 pmol/min
[14]
  Drug degradation: 56%
[15]
  Drug degradation: 0.5539 nmol/min

## Nc1ncnc2c1ncn2[C@@H]1O[C@H](COP(=O)(O)OP(=O)(O)O)[C@@H](O)[C@H]1O [ADENOSINE DIPHOSPHATE]
[2]
  Stability: Stable

## Nc1nc2c(ncn2[C@@H]2O[C@H](CO[P@@](=O)(S)OP(=O)(O)O)[C@@H](O)[C@H]2O)c(=O)[nH]1
[1]
  Retention_time: 16.9 min

## Nc1ncnc2c1ncn2[C@@H]1O[C@H](CO[P@@](=O)(S)OP(=O)(O)O)[C@@H](O)[C@H]1O
[2]
  Drug degradation: 2.9 ×10⁻³ nmol/min
[3]
  metabolised at 50 µM: 10%
[16]
  Drug metabolism: Metabolite_Detected
[1]
  Retention_time: 18.9 min

## NC(=O)c1ncn([C@@H]2O[C@H](CO[P@@](=O)(S)OP(=O)(O)O[P@](=O)(S)OC[C@H]3O[C@@H](n4cnc(C(N)=O)n4)[C@H](O)[C@@H]3O)[C@@H](O)[C@H]2O)n1
[11]
  Stability: Stable
[12]
  metabolised at 1 h, 200 µM: 80%
[13]
  Drug degradation: 0.0538 nmol/min

## Nc1nc2c(ncn2[C@@H]2O[C@H](COP(=O)(S)OCCSP(=O)(S)OC[C@H]3O[C@@H](n4cnc5c(=O)[nH]c(N)nc54)[C@H](O)[C@@H]3O)[C@@H](O)[C@H]2O)c(=O)[nH]1 (stereo in doubt; 9A)
[6]
  Drug degradation: 3.9 pmol/min
[17]
  metabolised at 0.25 h, 50 µM: 70%
[15]
  Drug degradation: 0.6944 nmol/min

## Nc1ncnc2c1ncn2[C@@H]1O[C@H](CO[P@](=O)(S)OP(=O)(O)O[P@](=O)(S)OC[C@H]2O[C@@H](n3cnc4c(N)ncnc43)[C@H](O)[C@@H]2O)[C@@H](O)[C@H]1O
[6]
  Drug degradation: 27.8 pmol/min
[18]
  metabolised at 0.5 h, 50 µM: 88%
[19]
  Drug degradation: 0.0368 nmol/min

## NC(=O)c1ncn([C@@H]2O[C@H](CO[P@](=O)(S)OP(=O)(O)O)[C@@H](O)[C@H]2O)n1
[1]
  Retention_time: 10.9 min

## Nc1nc2c(ncn2[C@@H]2O[C@H](COP(O)(O)=S)[C@@H](O)[C@H]2O)c(=O)[nH]1
[20]
  Drug metabolism: Metabolite_Detected
[1]
  Retention_time: 11.1 min

## Nc1ncnc2c1ncn2[C@@H]1O[C@H](CO[P@@](=O)(S)OP(=O)(O)O[P@](=O)(S)OC[C@H]2O[C@@H](n3cnc4c(N)ncnc43)[C@H](O)[C@@H]2O)[C@@H](O)[C@H]1O
[6]
  Drug degradation: 5.8 pmol/min
[21]
  metabolised at 10 min, 50 µM: 88%
[22]
  Drug degradation: 0.1349 nmol/min

## Nc1ncnc2c1ncn2[C@@H]1O[C@H](COP(=O)(O)OP(=O)(O)OP(=O)(O)OC[C@H]2O[C@@H](n3cnc4c(N)ncnc43)[C@H](O)[C@@H]2O)[C@@H](O)[C@H]1O
[6]
  Drug degradation: 9810 pmol/min

## NC(=O)c1ncn([C@@H]2O[C@H](CO[P@](=O)(S)OP(=O)(O)O[P@@](=O)(S)OC[C@H]3O[C@@H](n4cnc(C(N)=O)n4)[C@H](O)[C@@H]3O)[C@@H](O)[C@H]2O)n1
[11]
  Stability: Stable
[12]
  metabolised at 1 h, 200 µM: 10%
[13]
  Drug degradation: 0.0023 nmol/min

## NC(=O)c1ncn([C@@H]2O[C@H](CO[P@@](=O)(S)OP(=O)(O)O)[C@@H](O)[C@H]2O)n1
[1]
  Retention_time: 11.8 min
